According to article PMC4157643 (Journal of pharmaceutical sciences, 2012):
Where “and” joins values, the source holds several entries; their conditions need not be identical. Equal entries are not always repeated. Where two headings read alike, the source gives them in different places.

Columns and labels:
[1] = retina to scleral (R-S) direction, isolated rabbit RCS; ref [4]; cited from earlier work
in vivo = details: male, New Zealand white, rabbit
[2] = ref Ameer et al., [10]; cited from earlier work
[3] = vitreous humor, two-compartment model, n=4
[4] = ref [2],[4], cited from earlier work

COc1ccc([C@@H]2CC(=O)c3c(O)cc(O)cc3O2)cc1O [hesperetin, Hesperetin]
apparent permeability [1]: 2.52 ± 0.51 × 10^−6 cm/s
Vd (in vivo): 0.001 to 0.0015 L
AUC (in vivo; 1.5 ug): 2980 ng·h/mL
Cmax (in vivo; 1.5 ug): 1020 ± 200 ng/mL
clearance (in vivo; 1.5 ug, CL): 0.0093 ± 0.004 mL/min
half-life (in vivo; 1.5 ug, T1/2): 1.83 ± 0.467 h
AUC (in vivo; 4.5 ug): 7920 ng·h/mL
Cmax (in vivo; 4.5 ug): 4510 ± 570 ng/mL
clearance (in vivo; 4.5 ug, CL): 0.0096 ± 0.0015 mL/min
half-life (in vivo; 4.5 ug, T1/2): 1.48 ± 0.233 h
AUC (in vivo; 15 ug): 29100 ng·h/mL
Cmax (in vivo; 15 ug): 14700 ± 1990 ng/mL
clearance (in vivo; 15 ug, CL): 0.0086 ± 0.0007 mL/min
half-life (in vivo; 15 ug, T1/2): 1.38 ± 0.167 h
clearance (in vivo; 15 ug, clearance rate (CL)): 0.0086 to 0.0096 mL/min
half-life (in vivo; 15 ug, elimination half-life (T1/2)): 1.39 to 1.84 h

COc1ccc([C@@H]2CC(=O)c3c(O)cc(O[C@@H]4O[C@H](CO[C@@H]5O[C@@H](C)[C@H](O)[C@@H](O)[C@H]5O)[C@@H](O)[C@H](O)[C@H]4O)cc3O2)cc1O [hesperidin, Hesperidin]
oral bioavailability [2]: < 25%
apparent permeability [1]: 1.51 ± 0.78 × 10^−6 cm/s
AUC ([3]; intravitreal dose 1.5 µg): 651 ± 88 µg·min/mL
Alpha ([3]; intravitreal dose 1.5 µg): 0.0267 ± 0.0077 min⁻¹
Alpha_HL ([3]; intravitreal dose 1.5 µg): 28 ± 7 min
Beta ([3]; intravitreal dose 1.5 µg): 0.0016 ± 0.0004 min⁻¹
Beta_HL ([3]; intravitreal dose 1.5 µg): 386 ± 116 min
CL ([3]; intravitreal dose 1.5 µg): 0.0027 ± 0.0003 mL/min
CLD2 ([3]; intravitreal dose 1.5 µg): 0.0058 ± 0.0010 mL/min
Cmax ([3]; intravitreal dose 1.5 µg): 3260 ± 1350 ng/mL
MRT ([3]; intravitreal dose 1.5 µg): 9.08 ± 1.77 h
V2 ([3]; intravitreal dose 1.5 µg): 0.75 ± 0.62 mL
Vss ([3]; intravitreal dose 1.5 µg): 1.48 ± 0.42 mL
AUC ([3]; intravitreal dose 4.5 µg): 1575 ± 164 µg·min/mL
Alpha ([3]; intravitreal dose 4.5 µg): 0.0249 ± 0.0109 min⁻¹
Alpha_HL ([3]; intravitreal dose 4.5 µg): 31 ± 11 min
Beta ([3]; intravitreal dose 4.5 µg): 0.0017 ± 0.0003 min⁻¹
Beta_HL ([3]; intravitreal dose 4.5 µg): 407 ± 58 min
CL ([3]; intravitreal dose 4.5 µg): 0.0029 ± 0.0003 mL/min
CLD2 ([3]; intravitreal dose 4.5 µg): 0.0054 ± 0.0026 mL/min
Cmax ([3]; intravitreal dose 4.5 µg): 10820 ± 1120 ng/mL
MRT ([3]; intravitreal dose 4.5 µg): 7.47 ± 0.917 h
V2 ([3]; intravitreal dose 4.5 µg): 0.87 ± 0.21 mL
Vss ([3]; intravitreal dose 4.5 µg): 1.29 ± 0.21 mL
AUC ([3]; intravitreal dose 15 µg): 4835 ± 861 µg·min/mL
Alpha ([3]; intravitreal dose 15 µg): 0.0358 ± 0.0084 min⁻¹
Alpha_HL ([3]; intravitreal dose 15 µg): 20 ± 5 min
Beta ([3]; intravitreal dose 15 µg): 0.0014 ± 0.0004 min⁻¹
Beta_HL ([3]; intravitreal dose 15 µg): 466 ± 98 min
CL ([3]; intravitreal dose 15 µg): 0.0032 ± 0.0005 mL/min
CLD2 ([3]; intravitreal dose 15 µg): 0.0130 ± 0.0026 mL/min
Cmax ([3]; intravitreal dose 15 µg): 25230 ± 3020 ng/mL
MRT ([3]; intravitreal dose 15 µg): 11.1 ± 3.07 h
V2 ([3]; intravitreal dose 15 µg): 1.46 ± 0.40 mL
Vss ([3]; intravitreal dose 15 µg): 2.07 ± 0.35 mL
log P [4]: 1.79 and 1.78

glucosyl hesperidin [hesperidin G]
AUC ([3]; intravitreal dose 1.5 µg): 688 ± 47 µg·min/mL
Alpha ([3]; intravitreal dose 1.5 µg): 0.045 ± 0.019 min⁻¹
Alpha_HL ([3]; intravitreal dose 1.5 µg): 17 ± 6 min
Beta ([3]; intravitreal dose 1.5 µg): 0.0014 ± 0.0002 min⁻¹
Beta_HL ([3]; intravitreal dose 1.5 µg): 495 ± 66 min
CL ([3]; intravitreal dose 1.5 µg): 0.0022 ± 0.0002 mL/min
CLD2 ([3]; intravitreal dose 1.5 µg): 0.011 ± 0.002 mL/min
Cmax ([3]; intravitreal dose 1.5 µg): 3790 ± 1060 ng/mL
MRT ([3]; intravitreal dose 1.5 µg): 10.8 ± 1.5 h
Vss ([3]; intravitreal dose 1.5 µg): 1.41 ± 0.14 mL
AUC ([3]; intravitreal dose 4.5 µg): 1811 ± 269 µg·min/mL
Alpha ([3]; intravitreal dose 4.5 µg): 0.028 ± 0.011 min⁻¹
Alpha_HL ([3]; intravitreal dose 4.5 µg): 29 ± 16 min
Beta ([3]; intravitreal dose 4.5 µg): 0.0015 ± 0.0002 min⁻¹
Beta_HL ([3]; intravitreal dose 4.5 µg): 468 ± 82 min
CL ([3]; intravitreal dose 4.5 µg): 0.0025 ± 0.0004 mL/min
CLD2 ([3]; intravitreal dose 4.5 µg): 0.003 ± 0.001 mL/min
Cmax ([3]; intravitreal dose 4.5 µg): 20160 ± 6120 ng/mL
MRT ([3]; intravitreal dose 4.5 µg): 6.97 ± 0.35 h
Vss ([3]; intravitreal dose 4.5 µg): 1.05 ± 0.013 mL
AUC ([3]; intravitreal dose 15 µg): 6167 ± 168 µg·min/mL
Alpha ([3]; intravitreal dose 15 µg): 0.027 ± 0.007 min⁻¹
Alpha_HL ([3]; intravitreal dose 15 µg): 27 ± 8 min
Beta ([3]; intravitreal dose 15 µg): 0.0017 ± 0.0003 min⁻¹
Beta_HL ([3]; intravitreal dose 15 µg): 414 ± 70 min
CL ([3]; intravitreal dose 15 µg): 0.0024 ± 0.0002 mL/min
CLD2 ([3]; intravitreal dose 15 µg): 0.007 ± 0.001 mL/min
Cmax ([3]; intravitreal dose 15 µg): 32050 ± 4390 ng/mL
MRT ([3]; intravitreal dose 15 µg): 8.62 ± 1.33 h
Vss ([3]; intravitreal dose 15 µg): 1.25 ± 0.16 mL
log P [4]: −3.2
log P ([4]; listed as Hesperidin G): < −3.2
